In patent US4198415A, “Prolactin inhibiting octahydro pyrazolo[3,4-g]quinolines” (Eli Lilly and Company, priority 1979, dated 1980):
Where a name gives a salt, the structure may show the parent alone.

Tests used:
[1] = intraperitoneal lethality (LD50); type: in vivo
Experimental: In using the compounds of this invention to inhibit prolactin secretion or to treat Parkinson's syndrome or for other pharmacologic action, a compound according to Formula Ia or Ib above in which R is C1 -C3 alkyl or allyl and R^1 is H or CH2 X where X is OCH3, SCH3, SO2 CH3, CN or CONH2, or a salt thereof with a pharmaceutically-acceptable acid, is administered to a subject suffering from Parkinsonism or in need of having his or her prolactin level reduced in an amount effective to treat Parkinsonism or to reduce prolactin. Oral administration is preferred. If parenteral administration is used, the injection is preferably by the subcutaneous route using an appropriate pharmaceutical formulation. […] In particular, with intravenous or intramuscular administration, a water soluble pharmaceutically-acceptable salt is employed. For oral administration, the compound either as the free base or in the form of a salt thereof, can also be mixed with standard pharmaceutical excipients and loaded into empty telescoping gelatin capsules or pressed into tablets. The oral dosage range is from about 0.01 to 10 mg./kg. of mammalian weight and the parenteral dose range from about 0.0025 to 2.5 mg./kg.

prolactin = assay: inhibition of prolactin secretion in reserpine-treated male rats (serum prolactin); type: in vivo, rat (Sprague-Dawley); details: intraperitoneal, one hour after treatment, reserpine-pretreated rats
Experimental: Adult male rats of the Sprague-Dawley strain weighing about 200 g. were housed in an air-conditioned room with controlled lighting (lights on 6 a.m.-8 p.m.) and fed lab chow and water ad libitum. Each rat received an intraperitoneal injection of 2.0 mg. of reserpine in aqueous suspension 18 hours before administration of the test drug. The purpose of the reserpine was to keep prolactin levels uniformly elevated. The compounds under test were dissolved in 10 percent ethanol, and were injected intraperitoneally at doses of 50 mcg/kg and 0.5 and 5 mg/kg. Each compound was administered at each dose level to a group of 10 rats, and a control group of 10 intact males received an equivalent amount of 10 percent ethanol. One hour after treatment, all rats were killed by decapitation, and 150 μl aliquots of serum were assayed for prolactin.

[2] = system: 6-hydroxydopamine-lesioned rats; assay: turning behavior in 6-hydroxydopamine-lesioned rats (rat turning test, Parkinsonism); type: in vivo; details: intraperitoneal; for Average Number of Turns/rat: first 15 minutes after end of latency period
Experimental: In this test, nigroneostriatal-lesioned rats are employed, as prepared by the procedure of Ungerstedt and Arbuthnott, Brain Res, 24, 485 (1970). A compound having dopamine agonist activity causes the rats to turn in circles contralateral to the side of the lesion. After a latency period, which varies from compound to compound, the number of turns is counted over a 15-minute period.
The compounds were dissolved in water and the aqueous solution injected into the rat by the intraperitoneal route at dose levels of 1 mg/kg. and 100 mcg/kg.

SMILES | Percent Prolactin Inhibition (prolactin; 0.5 mg/kg) | Percent Prolactin Inhibition (prolactin; 5 mg/kg) | % of Rats Exhibiting Turning Behavior ([2]; 1 mg./kg.) | Average Number of Turns/rat ([2]; 1 mg./kg.) | % of Rats Exhibiting Turning Behavior ([2]; 100 mcg./kg.) | Average Number of Turns/rat ([2]; 100 mcg./kg.) | further results
CCCN1CCC[C@H]2Cc3[nH]ncc3C[C@@H]21 (relative stereo) [trans-dl-5-n-propyl-4,4a,5,6,7,8,8a,9-octahydro-1H and 2H-pyrazolo[3,4-g]quinoline dihydrochloride] |  |  |  |  |  |  | LD50 ([1]; in vivo, ip, intraperitoneal): 100 to 300 mg/kg; deaths ([1]; intraperitoneal dosages of 300 mg./kg.): fatal; deaths ([1]; intraperitoneal dosages of 10-100 mg./kg.): no deaths
CN1CCC[C@H]2Cc3n[nH]cc3C[C@@H]21 (relative stereo) [trans-dl-5-methyl-4,4a,5,6,7,8,8a,9-octahydro-1H-(and 2H)-pyrazolo[3,4-g]quinoline dihydrochlorides] | 42% | 84% |  |  |  |  | 
C=CCN1CCC[C@H]2Cc3n[nH]cc3C[C@@H]21 (relative stereo) [Trans-dl-5-allyl-4,4a,5,6,7,8,8a,9-octahydro-2-H(and 1H)-pyrazolo[3,4-g]quinoline dihydrochloride] |  |  | 100% | 165 turns/rat | 0% | 0 turns/rat | 
CCCN1CC(CSC)CC2Cc3n[nH]cc3CC21 (mixture of isomers) [trans-dl-5-n-Propyl-7-methylmercaptomethyl-4,4a,5,6,7,8,8a,9-octahydro-1H and 2H-pyrazolo[3,4-g]quinoline] | 48% | 73% |  |  |  |  | 
CCCN1CC(CSC)CC2Cc3n[nH]cc3CC21 (mixture of isomers) [trans-dl-5-n-Propyl-7-methylmercaptomethyl-4,4a,5,6,7,8,8a,9-octahydro-1H and 2H-pyrazolo[3,4-g]quinoline dihydrochloride] |  |  | 100% | 81 turns/rat | 50% | 67 turns/rat | 
